Reference: US20260325608A1, “PEPTIDES FOR USE IN THE TREATMENT OF SARCOMA” (PHARIS BIOTEC GMBH, priority 2023, published 2026)
No end group written: not given here.

What was measured:
[1] = Isoelectric point of the peptide; assay type: physicochemical
childhood sarcomas = settings: in vivo; cited from earlier work
osteosarcoma = experiment: Compassionate use treatment of an osteosarcoma patient with intranasal peptide (Example 5); assay type: in vivo; settings: three times a day
Method: A patient suffering from osteosarcoma was treated under the terms of compassionate use.
The peptide IVRYTKKVPQVS (SEQ ID NO: 21) was provided in a citrate/bicarbonate buffer (Pharmacopoeia Europaea, Ph. Eur.), in a concentration of 1 mg/mL (1 mg of the peptide in 1 mL of the buffer). This composition was administered intranasally as a nasal spray. The nasal spray was administered three times a day (morning, noon, evening), two strokes into each nasal cavity, for six weeks.
The course of the disease/clinical picture of the patient was monitored via an immune panel measurement, once a week. In blood count measurements, the numbers of erythrocytes, thrombocytes, etc. were determined.

## LVRYTKKVPQVSTPTL [ALB408-423, LVRYTKKVPQVSTPTL]
[1]
  isoelectric point (pI): 10.3

## O=P1(N(CCCl)CCCl)NCCCO1 (stereo not shown) [cyclophosphamide]
Childhood sarcomas
  anti-tumor efficacy: good anti-tumor efficacy

## IVRYTKKVPQVS [SEQ ID NO: 21]
osteosarcoma; 1 mg/mL nasal spray, six weeks
  side effects: no side effects were observed
osteosarcoma; 1 mg/mL nasal spray, six weeks, especially in the area of the spine and the vertebral holes
  regression of the tumor (MRT measurements): regression of the tumor
osteosarcoma; after four weeks of treatment, 1 mg/mL nasal spray in citrate/bicarbonate buffer, two strokes into each nasal cavity
  blood picture: normalized
osteosarcoma; after six weeks of treatment, 1 mg/mL nasal spray, severe pain before start
  pain: pain-free
osteosarcoma; during six weeks of treatment, 1 mg/mL nasal spray, patient was unable to move before start
  mobility of the patient: restored
